This is an account of results in patent US20110251252A1, “BIOMARKERS FOR MDM2 INHIBITORS FOR USE IN TREATING DISEASE” (THE REGENTS OF THE UNIVERSITY OF MICHIGAN, priority 2010, published 2011).

Holding throughout (format): cell-based, human
Assay [1] deals with p53 expression in resistant AML blasts with absent p53 expression. Nature of the assay: Ex vivo AML blasts epigenetic and MDM2 inhibitor apoptosis assay. Particulars: alone or in combination, followed by MI-219; four AML cases with absent or very low p53 mRNA. As for the experimental part:
Blasts enriched to >90% purity using methods detailed above were incubated with either DMSO or 0.5 μM 5-azacytidine (A2385, Sigma-Aldrich, Saint Louis, Mo.) for 48 hours (with 5-azacytidine replenished every 24 hours). During the last 12 hours of incubation, blasts were further aliquoted and treated with either 0.3 μM Trichostatin A (#9950, Cell Signaling Technology, Danvers, Mass.) or DMSO. At the end of the 48 hour incubation, each of the four differentially treated subgroups of blasts were treated with MI-219 at final concentrations of 0, 2.5, 5 and 10 μM for 40 hours, followed by annexin-V/PI FACS-based analysis of apoptosis. Aliquots of blasts in parallel were cultured in a 48-well plate at 10^6 cells per well in 1 ml of medium and treated with 10 μM MI-219 or solvent for 8 hours. Blasts were harvested, lysed and protein prepared for immunoblotting as described.
Attempting to obtain evidence for epigenetic p.53 gene silencing in AML with absent p53 mRNA expression, four AML cases were selected based on the availability of cryopreserved cells with absent or very low p53 mRNA for further analysis and treated purified blasts with trichostatin A and azacytidine (alone or in combination) followed by treatment with MI-219. Readouts for these experiments was the fraction of blasts undergoing apoptosis and posttreatment p53 protein levels. […]

Assay [2] relates to AML-193. Description: MI-219 apoptosis induction in AML cell lines. The following applies: AML-193 AML cell line, p53 (exon5-9) mut. As for the experimental part:
(§1) Next—the ability of MI-219 to induce apoptosis in 19 AML-derived cell lines was assessed.

The test system of assay [3] is Kasumi-1. Description: MI-219 apoptosis induction in AML cell lines. Particulars: Kasumi-1 AML cell line, p53 (exon5-9) mut. As for the experimental part:
as §1

For assay [4], the system named is OCI-AML-2. Description: MI-219 apoptosis induction in AML cell lines. The following applies: OCI-AML-2 AML cell line, p53 wt. As for the experimental part: as §1
In assay [5] the test system is AP-1060. Nature of the assay: MI-219 apoptosis induction in AML cell lines. Particulars: AP-1060 AML cell line, p53 wt. As for the experimental part:
as §1

Assay [6] has as its system MUTZ-2. Description: MI-219 apoptosis induction in AML cell lines. The following applies: MUTZ-2 AML cell line, p53 wt. As for the experimental part: as §1
The subject of assay [7] is OCI-M2. Description: MI-219 apoptosis induction in AML cell lines. Particulars: OCI-M2 AML cell line, p53 (exon5-9) mut. As for the experimental part: as §1
For assay [8], the system named is KG-1. Description: MI-219 apoptosis induction in AML cell lines. Particulars: KG-1 AML cell line, p53 (exon5-9) mut. As for the experimental part:
as §1

Assay [9] relates to OCI-AML-3. Description: MI-219 apoptosis induction in AML cell lines. The following applies: OCI-AML-3 AML cell line, p53 wt. As for the experimental part: as §1
For assay [10], the system named is MOLM-16. Nature of the assay: MI-219 apoptosis induction in AML cell lines. Particulars: MOLM-16 AML cell line, p53 (exon5-9) mut. As for the experimental part: as §1
Assay [11] concerns SKM-1. Description: MI-219 apoptosis induction in AML cell lines. Particulars: SKM-1 AML cell line, p53 (exon5-9) mut. As for the experimental part:
as §1

Assay [12] deals with OCI-AML-5. Description: MI-219 apoptosis induction in AML cell lines. The following applies: OCI-AML-5 AML cell line, p53 wt. As for the experimental part:
as §1

The test system of assay [13] is Kasumi-3. Description: MI-219 apoptosis induction in AML cell lines. Particulars: Kasumi-3 AML cell line, p53 (exon5-9) mut. As for the experimental part: as §1
Assay [14] relates to MONO-MAC-6. Nature of the assay: MI-219 apoptosis induction in AML cell lines. Particulars: MONO-MAC-6 AML cell line, p53 (exon5-9) mut. As for the experimental part: as §1
Assay [15] concerns MOLM-13. Nature of the assay: MI-219 apoptosis induction in AML cell lines. Particulars: MOLM-13 AML cell line, p53 wt. As for the experimental part: as §1
The test system of assay [16] is HL60. Description: MI-219 apoptosis induction in AML cell lines. The following applies: HL60 AML cell line, p53 deleted. As for the experimental part:
as §1

Assay [17] relates to ME-1. Description: MI-219 apoptosis induction in AML cell lines. The following applies: ME-1 AML cell line, p53 (exon5-9) mut. As for the experimental part: as §1
Assay [18] relates to GF-D8. Description: MI-219 apoptosis induction in AML cell lines. The following applies: GF-D8 AML cell line, p53 (exon5-9) mut. As for the experimental part: as §1
The subject of assay [19] is SIG-M5. Description: MI-219 apoptosis induction in AML cell lines. The following applies: SIG-M5 AML cell line, p53 wt. As for the experimental part:
as §1

In assay [20] the test system is ML-2. Description: MI-219 apoptosis induction in AML cell lines. The following applies: ML-2 AML cell line, p53 wt. As for the experimental part:
as §1

For assay [21], the system named is p53. Nature of the assay: p53 immunoblot of AML cell lines after MI-219 treatment. On the technique in general: Immunoblotting shows a protein as a band on a membrane.
Assay [22] deals with AML blasts. Description: Ex vivo AML blasts MDM2 inhibitor apoptosis assay (annexin-V/PI FACS). As for the experimental part:
Blasts enriched to >90% purity using methods detailed above were incubated in serum-supplemented RPMI medium at 2.5×10^5 cells in 100 μl final volume in the presence of various concentrations of the MDM2 inhibitors MI-219 and MI-63 (range 0.625-20 μM) for 40 hours. Apoptosis and necrosis was measured for each treated blast aliquot using annexin-V/PI FACS-based readouts and values subsequently normalized to spontaneous death rates in untreated parallel cultures according to the formula (% alive=% mean alive treated samples/% mean alive paired non-treated samples).
To evaluate the efficacy of MDM2 inhibitor-mediated apoptotic cell kill in AML blasts ex vivo, blasts from 109 AML specimens (97 with wild type p53 and 12 with mutant p53 by exon 5-9 exon sequence analysis) were purified to >90% purity and cell aliquots were incubated for 40 hours with escalating concentrations of the MDM2 inhibitors MI-219 (N=109) and MI-63 (N=60). The apoptotic cell fraction in treated samples was subsequently quantitated through annexin V-PI-based FACS analysis and normalized to measurements in paired untreated cells.

[23] abbreviates: ex vivo, blasts from 109 patients.

Structures are written as SMILES. Read-outs that look alike come from different tables or passages of the source.

For `Nc1ncn([C@@H]2O[C@H](CO)[C@@H](O)[C@H]2O)c(=O)n1` [Azacytidine, 5-azacytidine], the “p53 expression after treatment” value in assay [1] is given as “Does Not Induce p53 Expression”.

One may read the IC50 as the midpoint of a concentration-inhibition curve. For the compound `CC(C)(C)C[C@H]1N[C@@H](C(=O)NCCN2CCOCC2)[C@H](c2cccc(Cl)c2F)[C@@]12C(=O)Nc1cc(Cl)ccc12` [MI-63], the IC50 in assay [2] was greater than 10 µM; in [3], greater than 10 µM; in [4], 4.74 µM; in assay [5], 4.03 µM; in [6], 1.17 µM; in assay [7], greater than 10 µM. For the same compound, the IC50 in assay [8], in assay [9], in assay [10], in [11], in [12] and in assay [13] was greater than 10 µM in each case. The IC50 in [14] was greater than 10 µM; in [15], 2.85 µM; in [16] it was greater than 10 µM; in assay [17], greater than 10 µM; in assay [18], greater than 10 µM; in [19], 3.8 µM. Also, the concentration for half-maximal inhibition (IC50) in [20] turned out to be 7.47 µM.

Take `CC(C)(C)C[C@H]1N[C@@H](C(=O)NCC[C@H](O)CO)[C@H](c2cccc(Cl)c2)[C@@]12C(=O)Nc1cc(Cl)c(F)cc12.Cl` [MI-219]: the “p53 immunoblot (MI-219 10 μM)” value in assay [21] (AP-1060) is listed as “Inducible”; in assay [21] (GF-D8), “non-inducible”; in assay [21] (Kasumi-1), “non-inducible”; in assay [21] (Kasumi-3), “non-inducible”; in assay [21] (ML-2) it was “Inducible”; in [21] (MOLM-13), “Inducible”. The “p53 immunoblot (MI-219 10 μM)” value is “non-inducible” in assay [21] (MOLM-16); “non-inducible” in [21] (MONO-MAC-6); “Inducible” in [21] (MUTZ-2); “Inducible” in assay [21] (OCI-AML-2); “Inducible” in [21] (OCI-AML-3); “Inducible” in assay [21] (OCI-AML-5). Besides, the results for the “p53 immunoblot (MI-219 10 μM)” value in [21] (OCI-M2), in [21] (SIG-M5) and in assay [21] (SKM-1) were “non-inducible”, “Inducible” and “non-inducible”, respectively. For the same compound, the 50% inhibitory concentration (IC50) was greater than 20 µM in assay [2]; greater than 20 µM in [3]; 5.25 µM in assay [4]; 4.22 µM in assay [5]; 1.28 µM in assay [6]; greater than 20 µM in assay [7]. Also, the IC50 is greater than 20 µM in assay [8]; 18.2 µM in [9]; greater than 20 µM in assay [10]; greater than 20 µM in [11]; 13.8 µM in [12]; greater than 20 µM in [13]. Further, the IC50 in assay [14] was greater than 20 µM; in [15], 2.66 µM; in [16], greater than 20 µM; in assay [17] it was greater than 20 µM; in [18] it was greater than 20 µM; in assay [19] it was 3.44 µM. Moreover, the half-maximal inhibitory concentration (IC50) was 7.04 µM in assay [20]; 1.78 µM in assay [22] (all AML with wild type p53 exon 5-9, read-out: threshold IC50 value at the 25th percentile); 3.2 µM in assay [22] (all AML with wild type p53 exon 5-9, read-out: threshold IC50 value at the 50th percentile); 6.6 µM in assay [22] (previously untreated AML cases, exclusive of p53 exon 5-9 mutations, read-out: mean IC50); 6.1 µM in assay [22] (primary AML, exclusive of cases with p53 exon 5-9 mutations, 40 hours, read-out: mean IC50); 4.4 µM in assay [22] (relapsed AML cases, exclusive of p53 exon 5-9 mutations, read-out: mean IC50). Also, the IC50 was found to be 7.9 µM in [22] (secondary AML, exclusive of cases with p53 exon 5-9 mutations, 40 hours, read-out: mean IC50) and 4.8 µM in [22] (tAML, exclusive of cases with p53 exon 5-9 mutations, 40 hours, read-out: mean IC50). In assay [22] (21/97 cases), the “fraction of AML cases with wild type p53 with IC50>10 μM” value is on record as 22%. Further, in assay [22] (32/97 cases), the “fraction of AML cases with wild type p53 exon 5-9 that were very sensitive (IC50<2 μM)” value was determined as 33%. Further, the “fraction of AML cases with wild type p53 with IC50>5 μM” value in [22] (32/97 cases) is listed as 33%. In assay [22] (33/97 cases), the “fraction of AML cases with wild type p53 exon 5-9 that were sensitive (IC50>2 μM to <5 μM)” value was determined as 34%. For the same compound, in assay [22] (FLT3-ITD, N=19), the “fraction of AML samples with FLT3-ITD with IC50 <2 μM” value is reported as 58%. Besides, the “fraction of AML samples with FLT3-ITD with IC50 <5 μM” value in [22] (FLT3-ITD, N=19) amounted to 84%. Besides, the “fraction of AML cases with unmutated p53 with primary resistance” value in assay [22] (setting [23]) is reported as roughly 30%. The “sensitivity of AML cases with mutated p53” value in assay [22] (setting [23]) was “resistant”.

Consider `COc1ccc(C2=N[C@@H](c3ccc(Cl)cc3)[C@@H](c3ccc(Cl)cc3)N2C(=O)N2CCNC(=O)C2)c(OC(C)C)c1` [Nutlin, reference compound], for which the half-maximal inhibitory concentration (IC50) in assay [2] is greater than 10 µM; in assay [3] it was greater than 10 µM; in assay [4], 7.22 µM; in assay [5], 6.77 µM; in assay [6], 0.951 µM; in assay [7], greater than 10 µM. Also, the IC50 in [8], in assay [9], in [10], in [11], in [12] and in [13] was greater than 10 µM throughout. The half-inhibitory concentration (IC50) in assay [14] was greater than 10 µM; in assay [15], 4.04 µM; in [16] it was greater than 10 µM; in assay [17] it was greater than 10 µM; in [18], greater than 10 µM; in assay [19], 4.73 µM. In [20], this compound registered a concentration for half-maximal inhibition (IC50) of 10.4 µM.

With `CC(/C=C/C(=O)NO)=C\[C@@H](C)C(=O)c1ccc(N(C)C)cc1` [Trichostatin A], the “p53 expression after treatment” value in assay [1] is reported as “Does Not Induce p53 Expression”.
